Results reported in patent US20240317732A1, “A NEW MOLECULAR SCAFFOLD FOR TARGETING HRPN13” (THE UNITED STATES OF AMERICA AS REPRESENTED BY THE …, priority 2021, published 2024).
“Also recorded” adds a separate entry of the source.

Assays:
[1] = system: MM.1S cells; experiment: MTT cell viability assay in MM.1S; assay type: cell-based; conditions: read-out: XL5-VHL-2 Sensitivity (IC50, μM) Cell viability assay
Procedure: The mass spectra (upper panel) were deconvoluted from the UV peak (lower panel) indicated with a black arrow. […] Viability is calculated as (λ570)sample/(λ570)control×100(%). […] Immunoprobing for cleaved caspase-9 and hRpn13 was done separately with re-probing for β-actin. […] A dashed line indicates the value […].

[2] = system: RPMI 8226 WT cells; experiment: Apoptosis by cleaved caspase-9 immunoblot in RPMI 8226 WT; assay type: cell-based; conditions: 40 μM PROTAC or 20 μM XL5-S2
Procedure: RPMI 8226 WT or trRpn13-MM2 (MM2) cells were treated with 40 μM XL5-VHL-2, 40 μM XL5-VHL-3 or DMSO (vehicle control) and the whole cell extract immunoprobed for hRpn13 or cleaved caspase-9 with β-actin as a loading control. A black asterisk indicates cleaved caspase-9 in the 2-min immunoblot for hRpn13, as hRpn13 was probed following cleaved caspase-9 and without stripping the membrane.
RPMI 8226 WT or trRpn13-MM2 cells were treated with 20 μM XL5-S2 or DMSO (vehicle control) and the whole cell extract immunoprobed for hRpn13 or cleaved caspase-9, with β-actin as a loading control. A black asterisk indicates cleaved caspase-9 in the 5-min immunoblot for hRpn13, as hRpn13 was probed following cleaved caspase-9 and without stripping the membrane.
HCT116 WT, HCT116 trRpn13, RPMI 8226 or 293T cells were collected and washed with PBS followed by lysing in 1% Triton-TBS lysis buffer (50 mM Tris-HCl, pH 7.5, 150 mM NaCl, 1 mM PMSF) supplemented with protease inhibitor cocktail (Roche). Total protein concentration was determined by bicinchoninic acid (Pierce). Protein lysates were prepared in 1χ LDS (ThermoFisher, NP0007) buffer with 100 mM DTT and heating at 70° C. for 10 min, loaded onto 4-12% Bis-Tris polyacrylamide gels (Life Technologies), subjected to SDS-PAGE and transferred to Invitrolon polyvinylidene difluoride membranes (Life Technologies). […]

[3] = system: RPMI 8226 trRpn13-MM2 cells; experiment: MTT cell viability assay in RPMI 8226 trRpn13-MM2; assay type: cell-based; conditions: RPMI 8226 trRpn13-MM2, 48 hours, compared to WT
Procedure: FIGS. 11A-11C show hRpn13-Pru PROTACs with different linkers restrict cell viability in an hRpn13 Pru-dependent manner. RPMI 8226 WT (darker shades) or trRpn13-MM2 (lighter shades) cells were treated with the indicated concentration of XL5-VHL-2 (FIG. 11A), XL5-VHL-3 (FIG. 11A), XL5-VHL-4 (FIG. 11B) or XL5-VHL-5 (FIG. 11C) for 48 hours and cell metabolism measured by an MTT assay; data represent mean±SD of n=6 biological replicates. Viability is calculated as (λ570)sample/(λ570)control×100(%).

[4] = system: hRpn13 / hRpn13-Pru; experiment: Immunoblot of hRpn13 species in RPMI 8226 cell lysates; assay type: cell-based, human; conditions: RPMI 8226, 40 μM, 24 hours
Procedure: HCT116 WT, HCT116 trRpn13, RPMI 8226 or 293T cells were collected and washed with PBS followed by lysing in 1% Triton-TBS lysis buffer (50 mM Tris-HCl, pH 7.5, 150 mM NaCl, 1 mM PMSF) supplemented with protease inhibitor cocktail (Roche). Total protein concentration was determined by bicinchoninic acid (Pierce). Protein lysates were prepared in 1χ LDS (ThermoFisher, NP0007) buffer with 100 mM DTT and heating at 70° C. for 10 min, loaded onto 4-12% Bis-Tris polyacrylamide gels (Life Technologies), subjected to SDS-PAGE and transferred to Invitrolon polyvinylidene difluoride membranes (Life Technologies). The membranes were blocked in Tris-buffered saline with 0.1% Tween-20 (TBST) supplemented with 5% skim milk, incubated with primary antibody, washed in TBST, incubated with secondary antibody and washed extensively in TBST. Pierce™ ECL Western Blotting Substrate (32106; Thermo Fisher Scientific) or Amersham™ ECL™ Primer Western Blotting Detection Reagent (cytiva) was used for antibody signal detection.
To test whether the XL5-PROTACs cause ubiquitination and degradation of hRpn13, lysates from RPMI 8226 (FIG. 5C) cells treated with 40 μM XL5 orXL5-PROTAC compared to DMSO vehicle control were immunoprobed for hRpn13 and β-actin (loading control).

[5] = system: RPMI 8226 cells; experiment: MTT cell metabolism / cell viability assay in RPMI 8226; assay type: cell-based
Procedure: (§1) Since previous hRpn13-targeting molecules induce apoptosis in multiple myeloma and colon cancer cells we tested whether XL5 restricts the RPMI 8226 multiple myeloma and HCT116 colon cancer cell lines by measuring metabolism with an MTT (3-(4,5-dimethylthiazol-2-yl)-2,5-diphenyltetrazolium bromide) assay. Experiments were also conducted in parallel with a HCT116 colon cancer cell line in which the exon encoding hRpn13 C88 is deleted, named trRpn13; this cell line expresses a truncated hRpn13 protein with a defective Pru and inability to bind the proteasome28. RPMI 8226 and WT (wild-type) or trRpn13 HCT116 cells seeded at 8,000 and 4,000 cells per well were treated with varying concentrations of XL5 extending to 40 μM and compared to cells incubated with equivalent amounts of DMSO vehicle control.
HCT116 WT or trRpn13 cells were seeded at 4,000 cells/well whereas RPMI 8226 cells were seeded at 8,000 cells/well with RPMI 1640 medium (no phenol red, Thermo Fisher Scientific 11835030) containing 2% fetal bovine serum in 96-well plates. Cells were treated with 0.4% DMSO (as a control) and this concentration was maintained with XL5, XL5-PROTACs XL5-VHL, XL5-VHL-2, XL5-CRBN, or XL5-IAP, and E3 ligands VHL-Ac, thalidomide (Selleckchem, catalog NO. S1193), or IAP-Bz at 10 μM, 20 μM, 30 μM or 40 μM concentration. After 48 hours, 0.35 mg/mL MTT was added for 4 hours of incubation. Stop solution (40% DMF, 10% SDS (W/V), 25 mM HCl, 2.5% acetic acid in H2O) was added to the cells and incubated overnight. Absorbance at 570 nm was measured by using CLARIOstar (BMG LABTECH).

[6] = system: HCT116 WT cells; experiment: MTT cell metabolism / cell viability assay in HCT116 WT; assay type: cell-based; conditions: read-out: XL5-VHL-2 Sensitivity (IC50, μM) Cell viability assay
Procedure: as §1
HCT116 WT or trRpn13 cells were seeded at 4,000 cells/well whereas RPMI 8226 cells were seeded at 8,000 cells/well with RPMI 1640 medium (no phenol red, Thermo Fisher Scientific 11835030) containing 2% fetal bovine serum in 96-well plates. Cells were treated with 0.4% DMSO (as a control) and this concentration was maintained with XL5, XL5-PROTACs XL5-VHL, XL5-VHL-2, XL5-CRBN, or XL5-IAP, and E3 ligands VHL-Ac, thalidomide (Selleckchem, catalog NO. S1193), or IAP-Bz at 10 μM, 20 μM, 30 μM or 40 μM concentration. […] Absorbance at 570 nm was measured by using CLARIOstar (BMG LABTECH).

Cc1ncsc1-c1ccc([C@H](C)NC(=O)[C@@H]2C[C@@H](O)CN2C(=O)[C@@H](NC(=O)CCCCc2cn(-c3ccc(C(=O)Nc4cccc(/C=C(\C#N)C(=O)Nc5ccccc5C(=O)O)c4)cc3)nn2)C(C)(C)C)cc1 [XL5-VHL-2]
IC50 [1]: 5.9 ± 0.7 µM
apoptosis induction (cleaved caspase-9) [2]: poorer induction of cleaved caspase-9
cell viability (MTT) [3]: loss of activity
lower molecular weight hRpn13 species (hRpn13-Pru) level [4]: less hRpn13-Pru loss; also recorded: reduced in abundance
higher molecular weight hRpn13 species characteristic of ubiquitination ([4]; longer exposure): increase in higher molecular weight hRpn13 species
metabolic activity / cell viability (MTT) ([5]; RPMI 8226, 48 hours, up to 40 μM): hook effect and lost
IC50 ([5]; RPMI 8226, read-out: XL5-VHL-2 Sensitivity (IC50, μM) Cell viability assay): 4.2 ± 1 µM
IC50 [6]: 23.6 ± 4.7 µM
